Assay results published in US6936723B2, “Synthetic salicylihalamides, apicularens and derivatives thereof” (Board of Regents, The University of Texas System, priority 2000, dated 2005).
Read-outs that look alike come from different tables or passages of the source. Each block holds one molecule with its values, some of them ahead of it.

How the values were obtained:
H358 = experiment: Growth inhibition of tumor cell lines compared to TAXOL: H358; assay type: cell-based; conditions: Homo sapiens, NCI-H358
Protocol: (§1) In addition, the ability of compounds 323a/c and 343 to inhibit growth of a number of tumor cell lines was tested and compared to TAXOL's ability to inhibit growth of these tumor cell lines.

H2058 = experiment: Growth inhibition of tumor cell lines compared to TAXOL: H2058; assay type: cell-based
Protocol: as §1

H1299 = experiment: Growth inhibition of tumor cell lines compared to TAXOL: H1299; assay type: cell-based; conditions: Homo sapiens, NCI-H1299
Protocol: as §1

H2009 = experiment: Growth inhibition of tumor cell lines compared to TAXOL: H2009; assay type: cell-based; conditions: Homo sapiens, NCI-H2009
Protocol: as §1

H175 = experiment: Growth inhibition of tumor cell lines compared to TAXOL: H175; assay type: cell-based
Protocol: as §1

H1264 = experiment: Growth inhibition of tumor cell lines compared to TAXOL: H1264; assay type: cell-based
Protocol: as §1

[1] = tested on: human melanoma cell line SK-MEL-5; experiment: Growth inhibition of the SK-MEL-5 human melanoma cell line (MTT assay); assay type: cell-based; conditions: for GI50: Homo sapiens; for growth inhibitory activity in the cell-based assay: SK-MEL-5 cell-based assay
Protocol: A cell-based assay looking for growth inhibition of the SK-MEL 5 human melanoma cell line was performed.

[2] = target: T1, purified reconstituted V-ATPase from bovine brain (Bos taurus, UniProt P23956+P61420+Q29466+Q2TA24); experiment: Inhibition of purified reconstituted V-ATPase (proton pumping); assay type: biochemical
T1 construct: from tissue; host or cells: bovine brain
From the text: Therefore, the present invention provides a method for inhibiting the proton-pumping activity of V-ATPase by contacting V-ATPase, either in vitro or in vivo with the compounds of the present invention. […] See Boyd, M. R. et al., J Pharmacol. Exp. Ther. 297, 114-120 (2001); see also, PCT publication WO 00/51589 of Boyd et al. V-ATPase is composed of an ATPase domain and a proton translocating membraneous channel. […] See Crider, Xie and Stone, J. Biol. Chem. 269:17379-17381 (1994) for the experimental procedure for binding. […] See Example 7 and Table 5 below. See also Bill. Crider, Xie and Stone, J Biol. Chem. 269:17379-17381 (1994).
Others in the art typically use crude membrane preparations to assay V-ATPase activity.

NCI 60-cell line panel = experiment: NCI 60-cell line human tumor screen (sulforhodamine B); assay type: cell-based; conditions: 48 hours incubation, 10^−6 to 10^−10 molar
From the text: The NCI 60-cell line human tumor screen is a measure of the effectiveness of a compound for inhibiting or killing various human cancers. It is a set of 60 different cancer cell lines against which chemical compounds can be tested against to determine if the compound has anti-cancer activity. Each compound has an individual “fingerprint” based on effectiveness in killing each of the 60 cancer cell lines.
The anti-cancer activity of the synthesized (+)- and (−)-salicylihalamide-A compounds of the present invention (compounds 78 in FIG. 10 and 301a/301c in FIG. 14.) was indistinguishable. […] Salicylihalamide derivatives, showing increased stability over natural salicylihalamide, were tested in the NCI 60 cell-line screen. This screen is an art recognized model. Prior to assay, synthesized compounds were stored in dimethylsulfoxide at −70° C. Five different test concentrations of each compound were prepared by diluting the stock solution into complete medium. Sample concentrations were 2× the final concentration and range from 10^−6 and 10^−10 molar. An aliquot of each concentration of each compound was added to separate microtiter wells containing the respective cell lines in culture medium. The plates were incubated for 48 hours at 37° C. with 5% CO2 and 100% humidity. Adherent cells were fixed by addition of cold 50% trichloracetic acid and incubation at 4° C. for 60 minutes. Suspended cells were fixed to the bottom of the well by addition of 80% trichloracetic acid. The supernatant was removed from each well and then each well was washed with deionized water and allowed to dry. Sulforhodamine B solution was added to each well and allowed to incubate for 10 minutes at room temperature. Unbound sulforhodamine B was removed by washing with 1% acetic acid. The wells were allowed to dry. Bound sulforhodamine B was solubilized using 10 mM Tris base and the optical density at 515 nanometers was determined.

SK-MEL-28 cells = experiment: Anti-cancer activity against SK-MEL-28 cells; assay type: cell-based, human
From the text: The inventor has accomplished the first synthesis of both […] and (−)-salicylihalamide A. The synthesis utilizes a highly efficient, trans-selective ring-closing olefin metathesis for the assembly of the benzolactone skeleton and can be readily adapted to obtain a variety of analogs. […] This cell line is one of the cell lines in the NCI 60 cell line screen.
The absolute configuration of natural salicylihalamide A (1a) was originally misassigned in Boyd et al., 1997. The correct configuration is represented by structure 89. The ultimate proof for this assignment came from a crystallographic analysis of a p-bromobenzoate derivative of salicylihalamide 90, prepared from 73 in a manner similar to the synthesis of 74. […] (−)-salicylihalamide A does have chemotherapeutic activity. […] This cell line is one of the cell lines in the NCI 60 cell line screen.

[3] = target: trans-membraneous proton channel domain of V-ATPase (Bos taurus, UniProt P23956+P61420+Q29466+Q2TA24); experiment: Incubation with V-ATPase domains independently: proton channel domain; assay type: biochemical
From the text: Therefore, the present invention provides a method for inhibiting the proton-pumping activity of V-ATPase by contacting V-ATPase, either in vitro or in vivo with the compounds of the present invention. Inhibition of the proton-pumping activity of V-ATPase is useful, inter alia, for the treatment and prevention of cancer and osteoporosis. […] See Boyd, M. R. et al., J Pharmacol. Exp. Ther. 297, 114-120 (2001); see also, PCT publication WO 00/51589 of Boyd et al. V-ATPase is composed of an ATPase domain and a proton translocating membraneous channel. […] See Crider, Xie and Stone, J. Biol. Chem. 269:17379-17381 (1994) for the experimental procedure for binding. This was shown by incubating select compounds of the present invention with the domains independently and showing that 70% of the channel activity was inhibited at 1 nM of the compound while there was virtually no interference with ATPase activity at the same concentration. See Example 7 and Table 5 below. See also Bill. Crider, Xie and Stone, J Biol. Chem. 269:17379-17381 (1994).

[4] = 48 h, SK-MEL-5, growth determined 2 days after addition by MTT assay, triplicate assays at 4 concentrations, read-out: GI50
[5] = purified reconstituted V-ATPase from bovine brain, inhibition of proton pumping, read-out: IC50

Sequence of trans-membraneous proton channel domain of V-ATPase (P61420 whole entry, other chains not shown, the tested form may be a part): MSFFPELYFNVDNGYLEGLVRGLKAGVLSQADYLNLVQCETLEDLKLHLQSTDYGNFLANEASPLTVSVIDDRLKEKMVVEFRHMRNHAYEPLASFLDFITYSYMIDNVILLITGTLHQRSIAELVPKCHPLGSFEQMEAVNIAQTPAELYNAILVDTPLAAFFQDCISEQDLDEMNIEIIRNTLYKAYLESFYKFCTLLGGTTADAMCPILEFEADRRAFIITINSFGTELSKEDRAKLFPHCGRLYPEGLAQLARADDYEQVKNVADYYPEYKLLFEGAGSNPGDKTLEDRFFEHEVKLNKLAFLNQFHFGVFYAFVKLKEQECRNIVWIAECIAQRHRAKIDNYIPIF
Sequence of trans-membraneous proton channel domain of V-ATPase (P23956 whole entry, other chains not shown, the tested form may be a part): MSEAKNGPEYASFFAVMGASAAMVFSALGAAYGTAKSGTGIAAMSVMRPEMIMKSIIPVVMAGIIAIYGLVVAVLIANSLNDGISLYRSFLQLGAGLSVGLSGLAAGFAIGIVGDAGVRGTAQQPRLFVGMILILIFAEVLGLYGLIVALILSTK
Sequence of trans-membraneous proton channel domain of V-ATPase (Q29466 whole entry, other chains not shown, the tested form may be a part): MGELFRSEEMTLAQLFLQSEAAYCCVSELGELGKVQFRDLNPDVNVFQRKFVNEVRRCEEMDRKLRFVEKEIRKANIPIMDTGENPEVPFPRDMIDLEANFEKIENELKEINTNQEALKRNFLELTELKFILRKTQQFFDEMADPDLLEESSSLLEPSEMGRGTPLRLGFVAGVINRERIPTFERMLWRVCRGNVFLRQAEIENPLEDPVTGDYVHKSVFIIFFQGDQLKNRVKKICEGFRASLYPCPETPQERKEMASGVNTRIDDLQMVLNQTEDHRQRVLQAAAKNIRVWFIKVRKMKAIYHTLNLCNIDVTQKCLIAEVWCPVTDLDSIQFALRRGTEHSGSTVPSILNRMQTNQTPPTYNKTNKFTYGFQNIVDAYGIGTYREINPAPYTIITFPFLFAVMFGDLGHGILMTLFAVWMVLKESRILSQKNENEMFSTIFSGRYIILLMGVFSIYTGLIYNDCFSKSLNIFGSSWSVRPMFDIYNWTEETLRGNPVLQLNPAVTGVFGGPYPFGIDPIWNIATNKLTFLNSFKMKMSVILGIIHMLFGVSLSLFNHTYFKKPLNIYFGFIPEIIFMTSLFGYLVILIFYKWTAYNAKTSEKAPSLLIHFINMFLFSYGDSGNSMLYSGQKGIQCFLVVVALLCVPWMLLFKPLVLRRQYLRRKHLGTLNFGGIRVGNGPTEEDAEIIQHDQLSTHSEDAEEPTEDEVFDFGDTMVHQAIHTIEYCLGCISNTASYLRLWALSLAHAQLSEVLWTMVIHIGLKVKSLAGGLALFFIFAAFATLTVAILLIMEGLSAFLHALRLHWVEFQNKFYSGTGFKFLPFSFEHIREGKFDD
Sequence of trans-membraneous proton channel domain of V-ATPase (Q2TA24 whole entry, other chains not shown, the tested form may be a part): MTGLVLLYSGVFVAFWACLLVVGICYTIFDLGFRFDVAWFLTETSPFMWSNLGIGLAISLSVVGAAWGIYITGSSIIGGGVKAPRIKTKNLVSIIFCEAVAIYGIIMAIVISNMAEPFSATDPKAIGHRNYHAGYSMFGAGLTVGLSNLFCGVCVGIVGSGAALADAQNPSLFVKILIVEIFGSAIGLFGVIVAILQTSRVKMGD

GI50 (H358; cell line H358, read-out: GI50): 5 nM
GI50 (H2058; cell line H2058, read-out: GI50): 5 nM
GI50 (H1299; cell line H1299, read-out: GI50): 5 nM
GI50 (H2009; cell line H2009, read-out: GI50): 5 nM
GI50 (H175; cell line H175, read-out: GI50): 5 nM
GI50 (H1264; cell line H1264, read-out: GI50): 5 nM
Molecule: CC(=O)O[C@H]1C(=O)[C@@]2(C)[C@H]([C@H](OC(=O)c3ccccc3)[C@]3(O)C[C@H](OC(=O)[C@H](O)[C@@H](NC(=O)c4ccccc4)c4ccccc4)C(C)=C1C3(C)C)[C@]1(OC(C)=O)CO[C@@H]1C[C@@H]2O [TAXOL, reference compound]

Molecule: CC(C)=CCC/C(C)=C/CC/C(C)=C/COC(=O)N/C=C/CC1C[C@@H](O)[C@@H](C)C/C=C/Cc2cccc(O)c2C(=O)O1 (some centres unmarked) [Compound 353]
GI50 [1, 4]: > 20000 nM
IC50 [2]: > 1800 nM

Molecule: CCCCCOC(=O)N/C=C/C[C@H]1C[C@@H](O)[C@@H](C)C/C=C/Cc2cccc(O)c2C(=O)O1 [Compound 351]
GI50 [1, 4]: 500 nM
IC50 [2]: 0.2 nM

Molecule: CCCCCOC(=O)N/C=C/C[C@H]1C[C@@H](O)[C@@H](C)CCCCc2cccc(O)c2C(=O)O1 [Compound 361]
GI50 [1, 4]: 8000 nM
growth inhibitory activity in the cell-based assay [1]: retained a significant, although attenuated, level of growth inhibitory activity
IC50 [2]: 9.3 nM

Molecule: CCCCCCC(=O)N/C=C/C[C@H]1C[C@@H](O)[C@@H](C)C/C=C/Cc2cccc(O)c2C(=O)O1 [Compound 346]
GI50 [1, 4]: 380 nM
IC50 [2]: 0.8 nM

GI50 [1, 4]: > 20000 nM
IC50 [2, 5]: > 1000 nM
Molecule: CCCCCCCC(=O)OCC[C@H]1C[C@@H](O)[C@@H](C)C/C=C/Cc2cccc(O)c2C(=O)O1 [Compound 355]
growth inhibitory activity in the cell-based assay [1]: completely inactive

Molecule: (+)-salicylihalamide A [Compound 87]
activity / differential cytotoxicity profile in the NCI 60-cell line screen (NCI 60-cell line panel): completerly inactive
activity / differential cytotoxicity profile in the NCI 60-cell line screen (NCI 60-cell line panel; listed as ent-301a): devoid of growth inhibitory activity
anti-cancer activity against SK-MEL-28 cells (SK-MEL-28 cells; at 20 μM): inactive
IC50 [2, 5]: 270 nM

Molecule: C[C@H]1C/C=C/Cc2cccc(O)c2C(=O)OC(C/C=C/NC(=O)C#Cc2ccccc2)C[C@H]1O (some centres unmarked) [Compound 349]
GI50 [1, 4]: 300 nM
IC50 [2]: 0.75 nM

Molecule: CCC=CC=CC(=O)NC=CCC1CC2CC(O)CC(Cc3cccc(O)c3C(=O)O1)O2 (centres unmarked) [Apicularen A]
GI50 [1, 4]: 6 nM
IC50 [2]: < 1 nM

Molecule: CCCCCSC(=O)N/C=C/CC1C[C@@H](O)[C@@H](C)C/C=C/Cc2cccc(O)c2C(=O)O1 (some centres unmarked) [Compound 352]
GI50 [1, 4]: 450 nM
IC50 [2]: 1.8 nM

Molecule: CCCCC#CC(=O)N/C=C/CC1C[C@@H](O)[C@@H](C)C/C=C/Cc2cccc(O)c2C(=O)O1 (some centres unmarked) [Compound 350]
GI50 [1, 4]: 300 nM
IC50 [2]: 1 nM

Molecule: CC/C=C\C=C/C(=O)N/C=C/C[C@H]1C[C@@H](O)[C@@H](C)C/C=C/Cc2cccc(O)c2C(=O)O1 [Compound 301a, salicylihalamide A]
binding site on V-ATPase [3]: membrane spanning Vo proton channel
activity / differential cytotoxicity profile in the NCI 60-cell line screen (NCI 60-cell line panel): differential cytotoxicity profile undistinguishable from the natural product
anti-cancer activity against SK-MEL-28 cells (SK-MEL-28 cells; at 10 nM): active
mode of V-ATPase inhibition (reversibility) [2]: reversible inhibitor

Molecule: CCCCCCC(=O)N(/C=C/C[C@H]1C[C@@H](O)[C@@H](C)C/C=C/Cc2cccc(O)c2C(=O)O1)C(=O)N/C=C/C[C@H]1C[C@@H](O)[C@@H](C)C/C=C/Cc2cccc(O)c2C(=O)O1 [Compound 345]
GI50 [1, 4]: 600 nM
IC50 [2]: 3 nM

Molecule: CO/C1=C\C(C)=C\[C@@H](C)[C@@H](O)[C@@H](C)C/C(C)=C/C=C/[C@H](OC)[C@@H]([C@@H](C)[C@@H](O)[C@H](C)[C@@]2(O)C[C@@H](O)[C@H](C)[C@@H](C(C)C)O2)OC1=O [Bafilomycin A, reference compound]
IC50 [2, 5]: 3.1 nM

Molecule: CC/C=C\C=C/C(=O)N(/C=C/C[C@H]1C[C@@H](O)[C@@H](C)C/C=C/Cc2cccc(O)c2C(=O)O1)C(=O)N/C=C/C[C@H]1C[C@@H](O)[C@@H](C)C/C=C/Cc2cccc(O)c2C(=O)O1 [Compound 343]
GI50 (H358): 10 nM
GI50 (H2058): 6.3 nM
GI50 (H1299): 5 nM
GI50 (H2009): 1.6 nM
GI50 (H175): 0.2 nM
GI50 (H1264): 31.6 nM
GI50 ([1]; SK-MEL-5, 48 h): 40 nM
IC50 [2]: 0.37 nM

Molecule: CCCCCOC(=O)N/C=C/C[C@H]1C[C@@H](O)[C@@H](C)C/C=C/Cc2cccc(OC(=O)c3ccccc3)c2C(=O)O1 [Compound 366]
GI50 [1, 4]: 1000 nM
IC50 [2, 5]: 300 nM

Molecule: C=CCOC(=O)/C=C/CC1C[C@@H](O)[C@@H](C)C/C=C/Cc2cccc(O)c2C(=O)O1 (some centres unmarked) [Compound 335b]
GI50 [1, 4]: > 20000 nM
growth inhibitory activity in the cell-based assay [1]: completely inactive
IC50 [2, 5]: 230 nM

Molecule: CCCCCOC(=O)NCCC[C@H]1C[C@@H](O)[C@@H](C)CCCCc2cccc(O)c2C(=O)O1 [Compound 362]
GI50 [1, 4]: > 20000 nM
growth inhibitory activity in the cell-based assay [1]: completely abolished antiproliferative potential
IC50 [2]: 75.7 nM

Molecule: CC/C=C\C=C/C(=O)N/C=C/C[C@H]1C[C@@H](O)[C@@H](C)C/C=C/Cc2cccc(O)c2C(=O)O1 [301a/301c]
GI50 (H358): 1.6 nM
GI50 (H2058): 3.2 nM
GI50 (H1299): 3.2 nM
GI50 (H2009): 2 nM
activity / differential cytotoxicity profile in the NCI 60-cell line screen (NCI 60-cell line panel; listed as 1:1 mixture of salicylihalamide A (1) and C22-E isomer 211): indistinguishable, within the limits of experimental error, from natural salicylihalamide A
GI50 (H175): 0.2 nM
GI50 (H1264): 31.6 nM
GI50 ([1]; SK-MEL-5, 48 h): 30 nM
IC50 [2]: 0.34 nM
